Here are results for eight molecules from patent US12509437B2, “Substituted thiophene carboxamides and derivatives thereof as microbicides” (Bayer Aktiengesellschaft, priority 2019, dated 2025).

Molecules are shown by their SMILES.

Assay [1] has as its system Pseudomonas syringae pv. tomato. Kind of assay: Pseudomonas syringae pv. tomato in vitro cell test. It is filed as cell-based. To be noted: 20 ppm of active ingredient, 24 h of incubation, read-out: efficacy (inhibition of bacteria growth; no direct activity). In a few lines: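 Bacteria from liquid pre-culture diluted to set OD in LB broth and exposed to compounds dissolved in DMSO (final ≤1%). After 24 h, growth read by absorbance; inhibition derived relative to compound-free control wells.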

The test system of assay [2] is salicylate responsive promoter sequence of the PR1 (pathogenesis-related protein I) gene (AT2G14610). Briefly: Induction of defense gene expression in Arabidopsis thaliana (PR1 promoter-GFP reporter plants). It is filed as in vivo. To be noted: 72 h, 3rd day after spraying, mock treated leaves set as 1.00, read-out: relative fluorescence value. In a few lines:
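Transgenic A. thaliana carrying GFP under the salicylate-responsive PR1 promoter, grown five days, then sprayed with compounds. Whole-plant fluorescence imaged and quantified on day 3 post-spray, expressed relative to mock-treated leaf background set at 1.00.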

Assay [3] has as its system Colletotrichum lindemuthianum. Kind of assay: In vivo preventive test on Colletotrichum lindemuthianum (Anthracnose on bean). To be noted: Colletotrichum lindemuthianum, 144 h, sprayed 72 hours before inoculation, evaluated 6 days after inoculation, read-out: efficacy; for pest or weed control at 500 ppm: 500 ppm of active ingredient; for pest or weed control at 31 ppm: 31 ppm of active ingredient; for pest or weed control at 125 ppm: 125 ppm of active ingredient. In short, it runs like this: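 Young bean plants were sprayed with compound in acetone/DMSO/Tween diluted in water, then inoculated 72 h later with C. lindemuthianum spores. Incubation was 24 h at 20 °C/100% RH, then 5 days at 20 °C/90% RH. Efficacy scored 6 days post-inoculation: 0% equals solvent-treated control, 100% means no disease.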

For assay [4], the system named is Colletotrichum lindemuthianum. Kind of assay: Colletotrichum lindemuthianum in vitro cell test. It is filed as cell-based. The settings on record: 144 h, 6 days incubation, read-out: efficacy (inhibition of fungal growth; no direct activity); for inhibition at 5 ppm: 5 ppm of active ingredient; for inhibition at 20 ppm: 20 ppm of active ingredient. In a few lines:
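Inhibition of spore germination and mycelial growth in liquid culture, read spectrometrically after 6 days incubation. Compounds added from DMSO (final ≤1%) to spores in glucose/peptone/yeast-extract medium; absorbance compared with untreated controls.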

For assay [5], the system named is Pseudomonas syringae pv. tomato. Briefly: In vivo preventive test on Pseudomonas syringae pv. tomato (bacterial speck on tomato). To be noted: sprayed 72 hours before inoculation, evaluated 5 or 6 days after inoculation, read-out: efficacy; for pest or weed control at 500 ppm: 500 ppm of active ingredient; for pest or weed control at 31 ppm: 31 ppm of active ingredient; for pest or weed control at 125 ppm: 125 ppm of active ingredient. As to the method: The tested active ingredients were prepared by homogenization in a mixture of acetone/Dimethyl sulfoxide/Tween®, and then diluted with water to obtain the desired active material concentration.
The young plants of tomato were treated by spraying the active ingredient prepared as described above. Control plants were treated only with an aqueous solution of acetone/Dimethyl sulfoxide/Tween®.
After 72 hours, the plants were contaminated by spraying the leaves with an aqueous bacteria suspension of Pseudomonas syringae pv. tomato. The contaminated tomato plants were incubated for 4 days in saturated atmosphere at 22° C. day/20° C. night−70% HR and then for 1 or 2 days at 22° C. day/20° C. night at 70-80% relative humidity.
The test was evaluated 5 or 6 days after the inoculation. 0% means an efficacy which corresponds to that of the control plants while an efficacy of 100% means that no disease was observed.

Assay [6] concerns Peronospora parasitica. Kind of assay: In vivo preventive test on Peronospora parasitica (Crucifer downy mildew) on cabbage. The settings on record: Hyaloperonospora parasitica, 120 h, sprayed 72 hours before inoculation, evaluated 5 days after inoculation, read-out: efficacy; for pest or weed control at 31 ppm: 31 ppm of active ingredient; for pest or weed control at 125 ppm: 125 ppm of active ingredient; for pest or weed control at 500 ppm: 500 ppm of active ingredient. In short, it runs like this:
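Preventive protocol: spore inoculation followed compound spraying by 72 h, with 5 days' incubation at 20 °C and 100% relative humidity. Disease was rated 5 days after inoculation against solvent-only plants (0% = control level, 100% = disease-free).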

For assay [7], the system named is Xanthomonas campestris pv. campestris. Kind of assay: In vivo preventive test on Xanthomonas campestris pv. campestris (black rot on cabbage). To be noted: Xanthomonas campestris, sprayed 72 hours before inoculation, evaluated 8 or 10 days after inoculation, read-out: efficacy; for pest or weed control at 31 ppm: 31 ppm of active ingredient; for pest or weed control at 125 ppm: 125 ppm of active ingredient; for pest or weed control at 500 ppm: 500 ppm of active ingredient. In short, it runs like this:
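Young cabbage plants sprayed preventively with compound formulated in acetone/DMSO/Tween and diluted in water, then inoculated 72 h later with a bacterial spray. Kept at 27° C, 95% relative humidity; disease scored after 8 or 10 days as % efficacy versus solvent-treated controls (0% = control, 100% = no disease).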

Assay [8] has as its system Alternaria alternata. Briefly: Alternaria alternata in vitro cell test. The class given is cell-based. To be noted: 120 h, 5 days incubation, read-out: efficacy (inhibition of fungal growth; no direct activity); for inhibition at 5 ppm: 5 ppm of active ingredient; for inhibition at 20 ppm: 20 ppm of active ingredient. In a few lines: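 A. alternata spores in glucose/peptone/yeast-extract liquid medium were exposed to DMSO-solubilized compound (final DMSO ≤1%). After 5 days incubation, mycelium growth read spectrometrically; inhibition derived from absorbance relative to fungicide-free control wells.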

On to `COC(=O)C(NC(=O)c1sc(Br)c(Br)c1C)C1CC1` (stereo not shown) [I.032], for which the inhibition at 20 ppm in assay [1] and in assay [8] was no more than 30% throughout. For the same molecule, the fold induction at 75 ppm in assay [2] was greater than 2. Besides, in assay [2], the fold induction at 300 ppm is greater than 2. In addition, the pest or weed control at 500 ppm in assay [3] lay in the range of 70 to 79%; in assay [5], 70 to 79%; in assay [6] it was 90 to 100%; in assay [7] it was 90 to 100%. Also, the inhibition at 5 ppm in assay [4] and in assay [8] was no more than 30% in each case. The pest or weed control at 31 ppm is 80 to 89% in assay [6] and 90 to 100% in assay [7]. The pest or weed control at 125 ppm in assay [6] and in assay [7] was 90 to 100% each time.
For `CCOC(=O)C1(NC(=O)c2sc(Cl)c(Cl)c2C)CCC1` [I.047], the inhibition at 20 ppm in assay [1] and in assay [8] was no more than 30% each time. The fold induction at 300 ppm in assay [2] was greater than 2. Also, the pest or weed control at 31 ppm in assay [3] was in the range of 90 to 100%; in assay [5] it was 70 to 79%; in assay [6], 90 to 100%. Moreover, the pest or weed control at 125 ppm in assay [3] lay in the range of 90 to 100%; in assay [5], 90 to 100%; in assay [6], 90 to 100%; in assay [7], 80 to 89%. The pest or weed control at 500 ppm in assay [3] and in assay [6] was 90 to 100% in each case. For the same molecule, the inhibition at 5 ppm in assay [4] and in assay [8] was no more than 30% each time.
Take `Cc1c(C(=S)NC2(C(=O)O)CC2)sc(Cl)c1Cl` [I.060]: the inhibition at 20 ppm in assay [1], in assay [4] and in assay [8] was no more than 30% throughout. In addition, the fold induction at 75 ppm in assay [2] was greater than 2. The fold induction at 300 ppm in assay [2] was greater than 2. The pest or weed control at 125 ppm is 80 to 89% in assay [3], 90 to 100% in assay [6] and 70 to 79% in assay [7]. Besides, the inhibition at 5 ppm in assay [4] and in assay [8] was no more than 30% throughout. Moreover, the figures for the pest or weed control at 500 ppm in assay [5], in assay [6] and in assay [7] were 70 to 79%, 90 to 100% and 80 to 89%, respectively. The pest or weed control at 31 ppm in assay [6] was 90 to 100%.
For `CCOC(=O)C(C#N)NC(=O)c1sc(Br)c(Br)c1C` (stereo not shown) [I.077], the inhibition at 20 ppm in assay [1], in assay [4] and in assay [8] was no more than 30% throughout. In addition, the fold induction at 75 ppm in assay [2] was greater than 2. For the same molecule, in assay [2], the fold induction at 300 ppm is greater than 2. Also, the pest or weed control at 31 ppm in assay [3], in assay [6] and in assay [7] was 80 to 89% each time. For the same molecule, the pest or weed control at 125 ppm in assay [3] was in the range of 80 to 89%; in assay [6], 90 to 100%; in assay [7] it was 80 to 89%. Besides, the results for the pest or weed control at 500 ppm in assay [3], in assay [5] and in assay [6] were 90 to 100%, 80 to 89% and 90 to 100%, respectively. Also, the inhibition at 5 ppm in assay [4] and in assay [8] was no more than 30% each time.
For the molecule `Cc1c(C(=O)NC(C(=O)O)C2CC2)sc(Br)c1Br` (stereo not shown) [I.080, cyclopropyl{[(4,5-dibromo-3-methyl-2-thienyl)carbonyl]amino}acetic acid], the inhibition at 20 ppm in assay [1], in assay [4] and in assay [8] was no more than 30% each time. Further, the fold induction at 75 ppm in assay [2] is greater than 2. The fold induction at 300 ppm in assay [2] is greater than 2. Also, the pest or weed control at 500 ppm in assay [3] fell in the range of 70 to 79%; in assay [5] it was 70 to 79%; in assay [6], 90 to 100%; in assay [7], 90 to 100%. The inhibition at 5 ppm in assay [4] and in assay [8] was no more than 30% in each case. Also, the pest or weed control at 125 ppm is 90 to 100% in assay [6] and 80 to 89% in assay [7]. Also, in assay [7], the pest or weed control at 31 ppm is 70 to 79%.
`COC(=O)C(NC(=O)c1sc(Cl)c(Cl)c1C)C1CC1` (stereo not shown) [I.081, methyl cyclopropyl{[(4,5-dichloro-3-methyl-2-thienyl)carbonyl]amino}acetate]: the inhibition at 20 ppm in assay [1], in assay [4] and in assay [8] was no more than 30% throughout. Besides, the fold induction at 75 ppm in assay [2] is greater than 2. The fold induction at 300 ppm in assay [2] was greater than 2. Further, the pest or weed control at 500 ppm in assay [3] lay in the range of 80 to 89%; in assay [6], 90 to 100%. Besides, the inhibition at 5 ppm in assay [4] and in assay [8] was no more than 30% each time. For the same molecule, the pest or weed control at 125 ppm was 70 to 79% in assay [5], 90 to 100% in assay [6] and 90 to 100% in assay [7]. Moreover, the pest or weed control at 31 ppm in assay [6] and in assay [7] was 80 to 89% in each case.
For `Cc1c(C(=O)NC(C(=O)O)C2CC2)sc(Cl)c1Cl` (stereo not shown) [I.095], the inhibition at 20 ppm in assay [1], in assay [4] and in assay [8] was no more than 30% each time. Further, the fold induction at 75 ppm in assay [2] was greater than 2. For the same molecule, the fold induction at 300 ppm in assay [2] is greater than 2. The pest or weed control at 125 ppm in assay [3] was 70 to 79%; in assay [5], 70 to 79%; in assay [6] it was 90 to 100%; in assay [7], 90 to 100%. Further, the inhibition at 5 ppm in assay [4] and in assay [8] was no more than 30% in each case. The figures for the pest or weed control at 500 ppm in assay [5], in assay [6] and in assay [7] were 80 to 89%, 90 to 100% and 90 to 100%, respectively. Also, the pest or weed control at 31 ppm in assay [6] lay in the range of 80 to 89%; in assay [7] it was 70 to 79%.
As for `COC(=O)CC[C@H](NC(=O)c1sc(Cl)c(Cl)c1C)C(=O)OC` [I.122], the inhibition at 20 ppm in assay [1], in assay [4] and in assay [8] was no more than 30% each time. Moreover, the fold induction at 75 ppm in assay [2] was greater than 2. Moreover, in assay [2], the fold induction at 300 ppm was greater than 2. Further, the pest or weed control at 31 ppm in assay [3] is no less than 70%; in assay [5], 70 to 79%; in assay [6], 90 to 100%; in assay [7] it was 90 to 100%. Moreover, the pest or weed control at 125 ppm in assay [3] was in the range of 70 to 79%; in assay [5], 80 to 89%; in assay [6] it was 90 to 100%; in assay [7], 90 to 100%. Moreover, the pest or weed control at 500 ppm in assay [3] was in the range of 80 to 89%; in assay [5], 80 to 89%; in assay [6], 90 to 100%; in assay [7], 90 to 100%. For the same molecule, the inhibition at 5 ppm in assay [4] and in assay [8] was no more than 30% throughout.
